The test system of data set [1] is Hsp70 induction and AKT degradation (cytosolic Hsp90 hallmarks) in C2C12 cells. The experiment in a line: Western blot of Hsp70 induction and AKT degradation in C2C12 cells. The data set is classed as cell-based, mouse. The conditions noted are these: 24 hrs. Background: In western blotting, separated proteins are transferred to a membrane and probed.
Experimental: Cell fractionation and immunoblotting. Cells were either treated with DMSO (vehicle) or indicated compounds for 24 hr and lysed in RIPA buffer (50 mM Tris-HCl, pH 7.4, 150 mM NaCl, 0.5% sodium deoxycholate and 0.5% NP40) supplemented with cocktail protease inhibitors (Roche) to produce whole cell lysates. Lysates for cytosol and membrane fractions were harvested using ProteoExtract Subcellular Proteome Extraction Kit (Calbiochem) following the manufacturer's instructions. Protein concentrations were determined using BCA kit (Pierce) according to the manufacturer's instructions. […] After washing off the excess antibodies, the membranes were incubated with the corresponding horseradish peroxidase (HRP) conjugated secondary antibody. Blots were visualized by autoradiography using the Enhanced Chemiluminescence Detection System (GE Healthcare) according to manufacturer's instructions. For all gels 3-actin was used as a protein loading control.
Data set [2] relates to Hsp70 induction in HEK293 cells. The experiment in a line: Hsp70 induction in HA-TLR9 transfected HEK293 cells. In kind it is cell-based, human. The settings on record: 24 h. The protocol:
Cell fractionation and immunoblotting. Cells were either treated with DMSO (vehicle) or indicated compounds for 24 hr and lysed in RIPA buffer (50 mM Tris-HCl, pH 7.4, 150 mM NaCl, 0.5% sodium deoxycholate and 0.5% NP40) supplemented with cocktail protease inhibitors (Roche) to produce whole cell lysates. Lysates for cytosol and membrane fractions were harvested using ProteoExtract Subcellular Proteome Extraction Kit (Calbiochem) following the manufacturer's instructions. Protein concentrations were determined using BCA kit (Pierce) according to the manufacturer's instructions. The protein lysates ([…]) were electrophoretically resolved by SDS-PAGE, transferred onto nitrocellulose membranes and probed with the indicated primary antibodies against: HER^2 (Zymed, 28004), Hsp70 (Stressgen, SPA-810), Grp94 (Stressgen, SPA-850), Hsp90α (Abcam, Ab2928), Hsp90β (StressMarq, SMC-107B), Grp78 (Cell Signaling, 3183), Raf-1 (Santa Cruz, sc-133), phospho-Raf-1 (Cell Signaling, 9421), MEK1/2 (Cell Signaling, 8727), phospho-MEK1/2 (Cell Signaling, 9154), ERK1/2 (Cell Signaling, 4695), phospho-ERK1/2 (Cell Signaling, 4370), AKT (Cell Signaling, 9272), GM130 (Cell Signaling, 2296), Flotillin 2 (Cell Signaling, 3436), Histone H4 (Cell Signaling, 2592), Histone H1 (Santa Cruz, sc-8030), Caspase 3 (Cell Signaling, 9665), cleaved PARP (Promega, G7341), a-tubulin (Sigma, T5168) and 3-actin (Sigma, A1978). After washing off the excess antibodies, the membranes were incubated with the corresponding horseradish peroxidase (HRP) conjugated secondary antibody. Blots were visualized by autoradiography using the Enhanced Chemiluminescence Detection System (GE Healthcare) according to manufacturer's instructions. […]
TLR^9-trafficking assay (Yang, Y. et al. Heat shock protein gp96 is a master chaperone for toll-like receptors and is important in the innate function of macrophages. Immunity 26, 215-26 (2007)). […] Fluorescence intensity was quantified using MetaMorph Microscopy Automation and Image Analysis Software (Molecular Devices Inc.) and normalized to the cell number.

Data set [3] relates to HEK293 cells. The experiment in a line: Toxicity to HEK293 cells. The data set is classed as cell-based, human.
The subject of data set [4] is CFPAC cells. In words: Cell viability assessment (CellTiter-Glo). In kind it is cell-based.
Data set [5] has as its system TLR9 ligand CpG DNA induced TNF-α production in RAW 264.7 macrophages. The experiment in a line: TNFα ELISA, CpG DNA stimulated macrophages. The data set is classed as cell-based, mouse. (ELISA stands for enzyme-linked immunosorbent assay.)

Structures are written as SMILES. “Also recorded” adds a separate entry of the source.

`CC(C)NCCCn1c(Sc2cc(Cl)cc(Cl)c2)nc2c(N)ncnc21` [PU-WS13]: in data set [1], the AKT degradation result is “lack of Hsp70 induction and AKT degradation; also recorded: has no effect”; the Hsp70 induction entry is given as “lack of Hsp70 induction; also recorded: has no effect”. Also, in data set [2], the Hsp70 induction entry is recorded as “fails to induce Hsp70”. In addition, the “toxicity to HEK293 cells” value in data set [3] is recorded as “not toxic”. Moreover, in data set [4], the “effect on cell growth” value is “modest effect”. Moreover, the “CpG DNA induced TNF-α production” value in data set [5] was “inhibited this response in a concentration dependent manner; also recorded: inhibit”.

Values taken from US12600725B2 (Memorial Sloan-Kettering Cancer Center, priority 2013, dated 2026).
